One assay deals with HIF-1α. The experiment in a line: Mouse tissue HIF Western blot analysis. In kind it is in vivo. Here is the method: (§1) Mouse Ischemic Hindlimb Study
(§2) All animal work is conducted in accordance with the Guide for the Care and Use of Laboratory Animals (National Academy of Sciences; Copyright© 1996) and the Institutional Animal Care and Use Committee guidelines at Procter and Gamble Pharmaceuticals. We studied 9-10 week old male C57Bl/6 mice from Charles River Laboratory (Portage, Mich.). The mice are orally dosed with vehicle (aqueous carbonate buffer, 50 mM; pH 9.0) or compound 1 in vehicle at 50 mg/kg or 100 mg/kg. The animals are dosed three times: day 1 at 8 am and 5 pm, day 2 at 8 am. One hour after the first dose, unilateral arterial ligation is performed under anesthesia using isoflurane. The femoral artery is ligated proximal to the origin of the popliteal artery. The contralateral limb underwent a sham surgical procedure. Ligation is performed in an alternating fashion between right and left hindlimbs. Two hours after 8 am dosing on day 2, we obtained blood by ventricular stick while the mice are anesthetized with isoflurane. Serum samples for EPO analysis are obtained using gel clot serum separation tubes. Heart, liver, and gastrocnemius muscles are harvested, snap-frozen in liquid nitrogen, and stored in −80° C. until use.
Mouse Tissue HIF Western Blot Analysis
Tissues from mice stored at −80° C. are powdered with mortar and pestle chilled with liquid nitrogen. […]

A further assay deals with EPO. The experiment in a line: Mouse serum EPO assay (mouse ischemic hindlimb study). The format is in vivo. Here is the method: as §1, §2
The mouse serum EPO is detected using Mouse Quantikine Erythropoietin ELISA kit from R&D Systems according to manufacturer's instructions.

For assay [1], the target named is Full-length recombinant human EGLN-3 (His-MBP-TVMVEGLN-3 fusion) (Homo sapiens (Human), UniProt Q9H6Z9). The experiment in a line: EGLN-3 enzyme activity assay (MALDI-TOF MS). Particulars: recombinant human EGLN-3 fusion; HIF-1α peptide 556-574 substrate; read-out: EGLIN3 IC50. In kind it is biochemical. Here is the method: Hydroxylated peptide product is identified from substrate by the gain of 16 Da. Data defined as percent conversion of substrate to product is analyzed in GraphPad Prism 4 to calculate IC50 values.

The values below come from patent publication US9598370B2, “Prolyl hydroxylase inhibitors and methods of use” (Akebia Therapeutics, Inc., priority 2006, dated 2017).

The structures appear in SMILES notation.

Sequence of Full-length recombinant human EGLN-3 (His-MBP-TVMVEGLN-3 fusion) (Q9H6Z9 whole entry, the tested form may be a part): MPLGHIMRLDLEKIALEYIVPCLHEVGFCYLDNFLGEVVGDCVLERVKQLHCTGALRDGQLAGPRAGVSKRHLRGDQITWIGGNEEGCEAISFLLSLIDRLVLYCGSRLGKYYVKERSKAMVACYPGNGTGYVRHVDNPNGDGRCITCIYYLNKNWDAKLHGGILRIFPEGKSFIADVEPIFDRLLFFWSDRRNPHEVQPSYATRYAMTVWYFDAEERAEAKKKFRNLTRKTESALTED

In the case of `O=C(O)CNC(=O)c1ncc(-c2cccc(Cl)c2)cc1O` [{[5-(3-Chlorophenyl)-3-hydroxypyridine-2-carbonyl]amino}-acetic acid], the “stabilization of HIF-1α in mouse liver (immunoblot of nuclear extracts, FIG. 1)” value in the assay on HIF-1α is recorded as “stabilization of HIF-1α”. In addition, the “erythropoietin level versus vehicle in mouse serum (FIG. 2)” value with EPO (mouse serum after oral dosing) is recorded as “elevated”.

Consider `O=C(O)CNC(=O)c1ncc(-c2ccc(Cl)cc2)cc1O` [{[5-(4-Chlorophenyl)-3-hydroxypyridine-2-carbonyl]amino}-acetic acid], for which, in assay [1], the IC50 (as a rule, the midpoint of a concentration-inhibition curve) is 83 nM. In addition, the EPO response entry with EPO (in vivo response, mouse serum EPO) was “yes”.
